{"source": "patent US20260174757A1", "about": "“COMPOSITIONS AND METHODS FOR TREATING PULMONARY ARTERIAL HYPERTENSION” (Inhibikase Therapeutics, Inc., priority 2024, published 2026)", "key": {"[1]": {"details": "imatinib mesylate in NHP, Q.D.; from NDA 21-335; cited from earlier work"}, "[2]": {"details": "steady state, Day 91, NOAEL 15 mg/kg, from NDA 21-335, cited from earlier work"}, "[3]": {"assay": "Comparative toxicology in non-human primate (NOAEL)", "details": "cynomolgus macaque, in vivo; 28-day GLP toxicology study in cynomolgus macaques; read-out: No Adverse Effect Level (NOAEL)", "description": "The compound of formula (I) was originally developed to address on-dosing side effects of imatinib therapy. In particular, up to 50% of imatinib patients experience persistent Grade 2 or less gastrointestinal (GI) adverse events during treatment for blood or stomach cancers, and during the previous imatinib trials, up to ⅓ of participants experienced these GI events including 3% of participants experiencing SAEs due to GI disturbance. The compound of formula (I) was developed specifically to reduce these events with the expectations that improvement in other off-target or unintended side effects of this therapy could follow. To illustrate the potential of the compound of formula (I) to minimize GI disturbance, the compound was evaluated in comparative toxicology experiments in non-human primate (NHP)."}, "[4]": {"details": "human, in vivo", "description": "Additionally, the clinical pharmacokinetics for each cohort of healthy subjects studied for the compound of formula (I) using the designs were summarized."}}, "note": "Structures can show the parent of a compound that is named as a salt. Where two headings read alike, the source gives them in different places.", "data": [{"compound": "Cc1ccc(NC(=O)c2ccc(CN3CCN(C)CC3)cc2)cc1Nc1nccc(-c2cccnc2)n1", "note": "[Imatinib mesylate, imatinib mesylate]", "values": [{"measurement": "No Adverse Effect Level (NOAEL)", "setting": "[1]", "result": 15, "unit": "mg/kg"}, {"measurement": "AUC0-last (mean)", "setting": "[2]; female", "result": 1960, "unit": "ng·h/mL"}, {"measurement": "AUC0-last (mean)", "setting": "[2]; male", "result": 1540, "unit": "ng·h/mL"}]}, {"compound": "CCC(C)OC(=O)OC[N+]1(C)CCN(Cc2ccc(C(=O)Nc3ccc(C)c(Nc4nccc(-c5cccnc5)n4)c3)cc2)CC1", "note": "(stereo not shown) [IkT-001Pro]", "values": [{"measurement": "NOAEL at 28 day", "setting": "[3]", "result": 75, "unit": "mg/kg"}, {"measurement": "dose dependence of single dose Cmax and AUC0-inf", "setting": "[4]", "result": "increased linearly with dose"}, {"measurement": "AUC0-last", "setting": "[4]; 300 mg", "result": 17820, "unit": "ng·h/mL"}, {"measurement": "CL/F", "setting": "[4]; 300 mg", "result": 14.03, "unit": "L/h"}, {"measurement": "Cmax", "setting": "[4]; 300 mg", "result": 926.1, "unit": "ng/mL"}, {"measurement": "Tmax", "setting": "[4]; 300 mg", "result": 5.33, "unit": "h"}, {"measurement": "Vz/F", "setting": "[4]; 300 mg", "result": 331.4, "unit": "L"}, {"measurement": "AUC0-last", "setting": "[4]; 400 mg", "result": 30100, "unit": "ng·h/mL"}, {"measurement": "CL/F", "setting": "[4]; 400 mg", "result": 10.82, "unit": "L/h"}, {"measurement": "Cmax", "setting": "[4]; 400 mg", "result": 1563, "unit": "ng/mL"}, {"measurement": "Tmax", "setting": "[4]; 400 mg", "result": 5.75, "unit": "h"}, {"measurement": "Vz/F", "setting": "[4]; 400 mg", "result": 247.5, "unit": "L"}, {"measurement": "AUC0-last", "setting": "[4]; 500 mg", "result": 38440, "unit": "ng·h/mL"}, {"measurement": "CL/F", "setting": "[4]; 500 mg", "result": 11.29, "unit": "L/h"}, {"measurement": "Cmax", "setting": "[4]; 500 mg", "result": 1836, "unit": "ng/mL"}, {"measurement": "Tmax", "setting": "[4]; 500 mg", "result": 5.75, "unit": "h"}, {"measurement": "Vz/F", "setting": "[4]; 500 mg", "result": 303.8, "unit": "L"}, {"measurement": "AUC0-inf LSM (plasma imatinib)", "setting": "[4]; 600 mg", "result": 41202.597}, {"measurement": "AUC0-last LSM (plasma imatinib)", "setting": "[4]; 600 mg", "result": 40456.384}, {"measurement": "Cmax LSM (plasma imatinib)", "setting": "[4]; 600 mg", "result": 1939.51}, {"measurement": "AUC0-inf LSM", "setting": "[4]; 800 mg", "result": 50840.298}, {"measurement": "AUC0-last", "setting": "[4]; 800 mg", "result": 51430, "unit": "ng·h/mL"}, {"measurement": "AUC0-last LSM", "setting": "[4]; 800 mg", "result": 50220.802}, {"measurement": "CL/F", "setting": "[4]; 800 mg", "result": 12.8, "unit": "L/h"}, {"measurement": "Cmax", "setting": "[4]; 800 mg", "result": 2467, "unit": "ng/mL"}, {"measurement": "Cmax LSM", "setting": "[4]; 800 mg", "result": 2409.131}, {"measurement": "Tmax", "setting": "[4]; 800 mg", "result": 5.5, "unit": "h"}, {"measurement": "Vz/F", "setting": "[4]; 800 mg", "result": 272, "unit": "L"}]}]}
